Measured values taken from patent publication EP3797781A1, “USE OF EC-7072 AND SYNERGIC COMPOSITIONS THEREOF IN TREATMENT OF CHRONIC LYMPHOCYTIC LEUKEMIA” (priority 2019, dated 2021).

Legend:
[1] = tested on: isolated leukemia cells from patients with CLL; assay: qPCR analysis of gene expression in isolated leukemia cells; format: cell-based, human; settings: 6 hours
Experimental: Isolated leukemia cells from patients with CLL were incubated with EC-7072 (200 nM) or DMSO for 6 hours. Total RNA was extracted using RNeasy Mini Kit (Qiagen). 2 µg total RNA were used for cDNA synthesis using High-Capacity cDNA Reverse Transcription Kit (Applied Biosystems). Quantitative RT-PCR was performed using SYBR Green PCR Master Mix (Applied Biosystems) in a 7300 Real-Time PCR System and each sample was analyzed in triplicate. Table 1. Primers used in qPCR
Expression of BCR-related genes was analyzed by qPCR in isolated CLL leukemia cells (n = 6) exposed to 200 nM EC-7072 for 6 hours (Figure 6A).
Expression of relevant genes that regulate apoptosis in CLL was analyzed by qPCR in isolated leukemia cells from patients with CLL (n = 6) exposed to 200 nM EC-7072 for 6 hours, to obtain the mean relative expression to the control (DMSO) control condition (Figure 6D).
The dysregulation of BCL2 expression in primary CLL by EC-7072 was evaluated by: • (i) incubating isolated CLL cells (n = 6) from patients with CLL following treatment with EC-7072 (200 nM) for 6 hours and extracting total RNA. Relative expression of BLC2 was determined by qPCR to obtain the mean relative expression to the control (DMSO) condition (Figure 6F); • (ii) incubating isolated CLL cells (n = 6) following treatment with 200 nM EC-7072 for 12 and 18 hours. BCL2 levels were evaluated by intracellular flow cytometry (Figure 6G); • (iii) incubating isolated T cells (n = 3) from patients with CLL following treatment with EC-7072 (200 nM) for 6 hours and extracting total RNA. Relative expression of BLC2 was determined by qPCR to obtain the mean relative expression to the control (DMSO) condition (Figure 6H); • (iv) incubating PBMCs (Figure 6I) and isolated T cells (Figure 6J) from patients with CLL (n = 3) following treatment with 200 nM EC-7072 for 24 hours. T-cell death and apoptosis were assessed by DiOC6(3)/PI staining to obtain percentages of viable [DiOC6(3)^+] cells and the mean percentages of apoptotic [DiOC6(3)^low PI^-] and dead [PI^+] cells. […]

[2] = tested on: MEC-1, GRANTA-519, Z-138, JVM-2, CA-46, Ramos, Raji and U266 cell lines; assay: Viability of B-cell malignancy cell lines by DiOC6(3)/PI staining; format: cell-based; settings: 500 nM, 24 hours; n = 3; Figure 5C
Experimental: Cell viability and apoptosis were evaluated by double-staining with the mitochondrial inner transmembrane potential (ΔΨm)-sensitive dye DiOC6(3) (3,3'-dihexyloxacarbocyanine iodide; Sigma-Aldrich) and the exclusion dye propidium iodide (PI; Immunostep), allowing identification of apoptotic [DiOC6(3)^low PI^-] and dead [PI^+] cells as per Proc. Natl. Acad. Sci. U.S.A. (2014) 111(8):3020-3025 and Methods Mol. Biol. (2016) 1419:1-16. Briefly, PBMCs were resuspended in culture medium containing 20 nM DiOC6(3) and incubated for 30 minutes at 37 °C. Then, PI (1 µg/mL) was added and cells were further incubated for 10 minutes at room temperature (RT). Cells were analyzed by flow cytometry considering DiOC6(3)^+PI^- cells as viable. In some experiments, apoptosis was evaluated by staining with Annexin V/PI. […]
Effectiveness of EC-7072 against different B-cell malignancies was assessed by; • (i) incubating primary fibroblasts from healthy donors (n = 4) and HK-2 cells from healthy human adult kidney (n = 3) following treatment with MTA (200 nM) or EC-7072 (200 nM) for 24 hours. […] Cell viability was assessed by DiOC6(3)/PI staining and normalized to control (DMSO) condition to obtain mean percentage of viable [DiOC6(3)^+] cells (Figure 5C).

CO[C@@H]([C@@H]1Cc2cc3cc(O[C@H]4C[C@@H](O[C@H]5C[C@@H](O)[C@H](O)[C@@H](C)O5)[C@H](O)[C@@H](C)O4)c(C)c(O)c3c(O)c2C(=O)[C@H]1O[C@H]1C[C@@H](O[C@H]2C[C@@H](O[C@H]3C[C@](C)(O)[C@H](O)[C@@H](C)O3)[C@@H](O)[C@@H](C)O2)[C@H](O)[C@@H](C)O1)[C@@H](O)C(C)=O [EC-7072, mithramycin SK]
expression of genes required for functional BCR signaling (CD79B, SYK, LYN, PIK3CD, PLCG2, CARD11) ([1]; 200 nM, RNA-seq, validated by qPCR (n = 6)): broad downregulation | gene expression of BCL2 ([1]; 200 nM, isolated CLL cells (n = 6)): significantly downregulated | expression of BCL2 upon BCR activation ([1]; EC-7072 200 nM in combination with α-IgM (10 µg/mL), n = 4): restore the expression of BCL2 to basal levels | surviving cell fraction of tumor cell lines derived from B-cell hematologic malignancies [2]: significantly reduced the surviving cell fraction
